According to patent US4245107A, “Cephalosporin derivatives and process for preparing the same” (Asahi Kasei Kogyo Kabushiki Kaisha, priority 1974, dated 1981):
≈ marks a conversion by molar mass, not a printed value. Read-outs that look alike come from different tables or passages of the source.

Tests used:
Format in all cases: cell-based
Shigella sonnei E 33 = assay: MIC against Shigella sonnei E 33
Proteus rettgeri, ACR = assay: MIC against Proteus rettgeri ACR; conditions: for MIC: Providencia rettgeri
[1] = test system: Staphylococcus aureus, ATCC 6538 P; assay: MIC against Staphylococcus aureus ATCC 6538 P
Escherichia coli, NIHJ = assay: MIC against Escherichia coli NIHJ
Escherichia coli, W 3630 = assay: MIC against Escherichia coli W 3630
[2] = test system: Klebsiella pneumoniae, ATCC 10031; assay: MIC against Klebsiella pneumoniae ATCC 10031
[3] = test system: Staphylococcus aureus, MS 27; assay: MIC against Staphylococcus aureus MS 27
[4] = test system: Salmonella enteritidis gaertner; assay: MIC against Salmonella enteritidis gaertner
Pseudomonas aeruginosa = assay: MIC against Pseudomonas aeruginosa (strain not given)
Escherichia coli, RGN 14 = assay: MIC against Escherichia coli RGN 14; conditions: Table 3
Enterobacter 0655 = assay: MIC against Enterobacter 0655
[5] = test system: Pseudomonas aeruginosa, IAM 1095; assay: MIC against Pseudomonas aeruginosa IAM 1095
Proteus vulgaris, OX 19 = assay: MIC against Proteus vulgaris OX 19; conditions: for minimum inhibitory concentration (MIC): Table 3
[6] = test system: Escherichia coli, RGN 238; assay: MIC against Escherichia coli RGN 238; conditions: Table 3
[7] = test system: Gram-positive bacteria and Gram-negative bacteria; assay: antimicrobial / bacterium-inhibiting activity (in words)
[8] = Table 1, read-out: minimum inhibitory concentration (MIC)
[9] = Table 3, read-out: minimum inhibitory concentration (MIC)

Compound: CC(=O)OCC1=C(C(=O)O)N2C(=O)C(NC(=O)C[S+]([O-])c3cccs3)C2SC1 (single isomer, unassigned) [Comparative Example, 7-(2-thienylsulfinylacetamido)cephalosporanicacid, reference compound]
- minimum inhibitory concentration (MIC) (Shigella sonnei E 33; Table 1): 25 µg/mL (≈ 56.2 µM)
- minimum inhibitory concentration (MIC) (Proteus rettgeri, ACR; Table 1): 100 µg/mL (≈ 225 µM)
- minimum inhibitory concentration (MIC) ([1]; Table 1, ATCC 6538 P): 1.6 µg/mL (≈ 3.6 µM)
- minimum inhibitory concentration (MIC) (Escherichia coli, NIHJ; Table 1): 6.3 µg/mL (≈ 14.2 µM)
- minimum inhibitory concentration (MIC) (Escherichia coli, W 3630; Table 1): 50 µg/mL (≈ 112 µM)
- minimum inhibitory concentration (MIC) ([2]; Table 1): 6.3 µg/mL (≈ 14.2 µM)
- minimum inhibitory concentration (MIC) ([3]; Table 1, ATCC MS 27): 6.3 µg/mL (≈ 14.2 µM)
- minimum inhibitory concentration (MIC) ([4]; Table 1): 12.5 µg/mL (≈ 28.1 µM)
- minimum inhibitory concentration (MIC) (Pseudomonas aeruginosa; Table 1): 100 µg/mL (≈ 225 µM)

Compound: CC(=O)OCC1=C(C(=O)O)N2C(=O)C(NC(=O)C[S+]([O-])c3cccs3)C2SC1 (single isomer, unassigned) [Example 1, 7-(2-thienylsulfinylacetamido)cephalosporanic acid]
- minimum inhibitory concentration (MIC) (Shigella sonnei E 33; Table 1): 3.1 µg/mL (≈ 6.97 µM)
- MIC (Proteus rettgeri, ACR; [8]): 100 µg/mL (≈ 225 µM)
- MIC ([1]; ATCC6538, Table 1, ATCC 6538 P, read-out: minimum inhibitory concentration (MIC)): 0.8 µg/mL (≈ 1.8 µM)
- minimum inhibitory concentration (MIC) (Escherichia coli, NIHJ; Table 1): 1.6 µg/mL (≈ 3.6 µM)
- minimum inhibitory concentration (MIC) ([2]; Table 1): 0.8 µg/mL (≈ 1.8 µM)
- minimum inhibitory concentration (MIC) ([3]; Table 1, ATCC MS 27): 1.6 µg/mL (≈ 3.6 µM)
- minimum inhibitory concentration (MIC) ([4]; Table 1): 1.6 µg/mL (≈ 3.6 µM)
- MIC (Pseudomonas aeruginosa; [8]): 100 µg/mL (≈ 225 µM)

Compound: CC(=O)OCC1=C(C(=O)O)N2C(=O)C(NC(=O)C[S+]([O-])c3ccccc3)C2SC1 (single isomer, unassigned) [Example 19, 7-(phenylsulfinylacetamido)cephalosporanic acid]
- minimum inhibitory concentration (MIC) (Escherichia coli, RGN 14): 12.5
- minimum inhibitory concentration (MIC) (Shigella sonnei E 33; Table 3): 6.3
- MIC (Enterobacter 0655; [9]): 100 µg/mL (≈ 228 µM)
- MIC (Proteus rettgeri, ACR; [9]): 100 µg/mL (≈ 228 µM)
- minimum inhibitory concentration (MIC) ([1]; Table 3, 6538 P): 0.2
- minimum inhibitory concentration (MIC) (Escherichia coli, NIHJ; Table 3): 1.6
- MIC ([5]; IAM1095, Table 3, read-out: minimum inhibitory concentration (MIC)): 100 µg/mL (≈ 228 µM)
- minimum inhibitory concentration (MIC) ([2]; Table 3): 1.6
- minimum inhibitory concentration (MIC) ([3]; Table 3, MS 27): 0.8
- minimum inhibitory concentration (MIC) (Proteus vulgaris, OX 19): 1.6
- minimum inhibitory concentration (MIC) ([4]; Table 3): 3.2

Compound: CC(=O)OCC1=C(C(=O)O)N2C(=O)C(NC(=O)C[S+]([O-])c3ccccc3)C2SC1 (single isomer, unassigned) [comparative product, 7-(Phenylsulfinylacetamido)cephalosporanic acid, reference compound]
- minimum inhibitory concentration (MIC) (Escherichia coli, RGN 14): 100
- minimum inhibitory concentration (MIC) (Shigella sonnei E 33; Table 3): 100
- minimum inhibitory concentration (MIC) (Enterobacter 0655; Table 3): 100
- minimum inhibitory concentration (MIC) (Proteus rettgeri, ACR; Table 3): 100
- minimum inhibitory concentration (MIC) ([1]; Table 3, 6538 P): 25
- minimum inhibitory concentration (MIC) (Escherichia coli, NIHJ; Table 3): 100
- minimum inhibitory concentration (MIC) ([5]; Table 3): 100
- minimum inhibitory concentration (MIC) (Escherichia coli, W 3630; Table 3): 100
- minimum inhibitory concentration (MIC) ([2]; Table 3): 50
- minimum inhibitory concentration (MIC) ([3]; Table 3, MS 27): 50
- minimum inhibitory concentration (MIC) [6]: 100
- minimum inhibitory concentration (MIC) (Proteus vulgaris, OX 19): 100
- minimum inhibitory concentration (MIC) ([4]; Table 3): 50

Compound: Cc1nnc(SCC2=C(C(=O)O)N3C(=O)C(NC(=O)C[S+]([O-])c4cccs4)[C@H]3SC2)s1 (stereo partly drawn) [Example 3, 7-(2-thienylsulfinylacetamido)-3-(5-methyl-1,3,4-thiadiazol-2-ylthiomethyl)-3-cephem-4-carboxylic acid]
- minimum inhibitory concentration (MIC), in words ([7]; versus product similarly derived from the compound of the Comparative Example): much superior

Compound: Cn1nnnc1SCC1=C(C(=O)[O-])N2C(=O)C(NC(=O)C[S+]([O-])c3cccs3)[C@H]2SC1.[Na+] (stereo partly drawn) [Example 4, sodium 7-(2-thienylsulfinylacetamido)-3-(1-methyl-1H-tetrazol-5-ylthiomethyl)-3-cephem-4-carboxylate]
- bacterium-inhibiting activity ([7]; versus product derived in the same manner from 2-thienylsulfinylacetic acid having [α]D^22° of -9.2°): much superior

Compound: O=C(C[S+]([O-])c1cccs1)NC1C(=O)N2C(C(=O)[O-])=C(C[n+]3ccccc3)CSC12 (stereo not drawn) [Example 6, 7-(2-thienylsulfinylacetamido)-3-(1-pyridiniummethyl)-3-cephem-4-carboxylate]
- antimicrobial activity [7]: excellent

Compound: CC1=C(C(=O)O)N2C(=O)C(NC(=O)C[S+]([O-])c3cccs3)[C@H]2SC1 (stereo partly drawn) [Example 7, 7-(2-thienylsulfinylacetamido)-3-methyl-3-cephem-4-carboxylic acid]
- microbial activity ([7]; versus product from 2-thienylsulfinylacetic acid having a negative specific rotary power): much superior

Compound: CC(=O)OCC1=C(C(=O)O)N2C(=O)C(NC(=O)C[S+]([O-])c3ccncc3)C2SC1 (stereo not drawn) [Example 10, 7-(4pyridylsulfinylacetamido)cephalosporanic acid]
- MIC (Shigella sonnei E 33; Shigella sonnei, E33, Table 2): 6.3 µg/mL (≈ 14.3 µM)
- MIC (Proteus rettgeri, ACR; Table 2, read-out: MIC): 100 µg/mL (≈ 228 µM)
- MIC ([1]; ATCC6538, Table 2, ATCC 6538 P, read-out: MIC): 0.4 µg/mL (≈ 0.91 µM)
- MIC (Escherichia coli, NIHJ; Table 2): 0.8 µg/mL (≈ 1.82 µM)
- MIC (Escherichia coli, W 3630; W3630, Table 2): 12.5 µg/mL (≈ 28.4 µM)
- MIC ([2]; ATCC10031, Table 2): 0.8 µg/mL (≈ 1.82 µM)
- MIC ([3]; MS27, Table 2, MS 27): 1.6 µg/mL (≈ 3.64 µM)
- MIC (Proteus vulgaris, OX 19; OX19, Table 2): 1.6 µg/mL (≈ 3.64 µM)
- MIC ([4]; Salmonella enterica, ENTERITIDIS, Table 2): 3.2 µg/mL (≈ 7.28 µM)
